Measurements published in article PMC9266460, “KSK-74: Dual Histamine H3 and Sigma-2 Receptor Ligand with Anti-Obesity Potential” (International Journal of Molecular Sciences, 2022).

What was measured:
sigma-1 receptor = target: sigma-1 receptor; set-up: method as in PMID 34908391; details: Figure 1; read-out: σ1R Ki; cited from earlier work
[1] = test system: rats fed a palatable diet; assay: Model of excessive eating: body weight, calorie intake, fat pads; assay type: in vivo, female Wistar rats; details: for body weight during administration (time course): 10 mg/kg i.p. daily, persisted until the 28th day; for amount of peritoneal fat pads vs palatable diet + vehicle: KSK 10 mg/kg, end of experiment; for amount of peritoneal fat pads vs palatable diet + vehicle / body weight gain vs palatable diet + vehicle: phentermine 7 mg/kg; for calorie intake vs control group fed palatable feed: i.p. 28 days, KSK 10 mg/kg b.w., phentermine 7 mg/kg b.w.; for body weight vs palatable diet + vehicle / body weight gain vs palatable diet + vehicle: i.p. daily 4 weeks; for body weight vs palatable diet + vehicle: 1 mg/kg; for body weight gain vs palatable diet + vehicle: KSK-60/KSK-74 10 mg/kg b.w.
Description: Experiments were performed on female Wistar rats with an initial body weight of 140–160 g. The animals were housed in plastic cages (2 rats per cage) at a constant room temperature of 22 ± 2 °C, with a 12:12 h light/dark cycle. Water and food were available ad libitum. The randomly established experimental groups consisted of 6 rats for pharmacological studies and 3 rats for pharmacokinetic studies. All experiments were conducted in accordance with the Guide to the Care and Use of Experimental Animals, and were approved by the Jagiellonian University in Krakow Local Ethics Committee for Experiments on Animals (Permission No: 185/2017, 220/2019 and 223A/2019).
Female rats were randomly divided into several groups (n = 6) and studied for 4 weeks. The groups were as follows: standard diet + vehicle, palatable diet + vehicle, palatable diet + KSK-60 (1 mg/kg), palatable diet + KSK-60 (10 mg/kg), palatable diet + KSK-74 (1 mg/kg), palatable diet + KSK-74 (10 mg/kg), palatable diet + phentermine (7 mg/kg).
The studies for the 1 mg/kg b.w. and 10 mg/kg b.w. doses were performed at different times, so the parameters studied were compared to the respective control groups.
Rats fed a palatable diet had access to a diet consisting of milk chocolate with nuts, cheese, salted peanuts, and 7% condensed milk, and simultaneously to a standard feed (Labofeed B, Morawski Manufacturer Feed, Poland) for 4 weeks. The water was available ad libitum. Animals had access to palatable products, but also to the standard feed. Most importantly, feeding was not in any way forced, as in other models where animals were fed only a high-fat diet, or temporarily deprived of food (binge eating models). In the case of our model, rats decided themselves when, what, and how much to eat. The weight was evaluated daily. Calorie intake was evaluated three times a week. A palatable diet contained 100 g of peanuts—612 kcal; 100 mL of condensed milk—131 kcal; 100 g of milk chocolate—529 kcal; and 100 g of cheese—325 kcal. The standard diet contained 100 g of feed—280 kcal. Standard diet (fats 8%, carbohydrates 67%, proteins 25%) contained 100 g feed—280 kcal.
The palatable control group (palatable diet + vehicle) received vehicle (1% Tween 80 i.p., daily, for 4 weeks), while palatable test groups were injected i.p. with KSK-60 (1 mg or 10 mg/kg i.p, daily, for 4 weeks), KSK-74 (1 mg/kg or 10 mg/kg i.p, daily, for 4 weeks), or phentermine (7 mg/kg i.p., daily, for 4 weeks), respectively.
On the 31st day, 20 min after i.p. administration of heparin (5000 units/rat) and thiopental (70 mg/kg b.w.), animals were sacrificed, and plasma as well as peritoneal fat pads were collected (food was stopped for 6 h prior to organ, tissue, and plasma collection) for further study.

sigma-2 receptor = target: sigma-2 receptor; set-up: method as in PMID 34908391; details: Figure 1; read-out: σ2R Ki; cited from earlier work
[2] = test system: rats fed a palatable diet; assay: Intraperitoneal glucose tolerance test; assay type: in vivo, female Wistar rats; details: 10 mg/kg; for blood glucose levels after glucose load vs control animals fed palatable feed: glucose 1 g/kg i.p., 29th day
Description: The test was conducted on the 29th day of the experiment. After twenty-eight administrations of the test compounds, the food was stopped for 20 h and then glucose tolerance was tested. Glucose (1 g/kg b.w.) was administered i.p.. Blood samples were obtained from the tail vein at the time points 0 (before glucose administration), 30, 60, and 120 min after administration. Glucose levels were measured with a glucometer (ContourTS, Bayer, Leverkusen, Germany, test stripes: ContourTS, Ascensia Diabetes care Poland Sp. z o. o., Poland, REF:84239666). The area under the curve (AUC) was calculated using the trapezoidal rule.

H3R = target: T1, H3R (Homo sapiens, UniProt Q9Y5N1); assay: Affinity at the H3R (literature values); assay type: binding; details: H3R Ki relative to sigma-2 Ki
T1 construct: the Aequoscreen line co-expresses apoaequorin
T1 sequence (Q9Y5N1 whole entry): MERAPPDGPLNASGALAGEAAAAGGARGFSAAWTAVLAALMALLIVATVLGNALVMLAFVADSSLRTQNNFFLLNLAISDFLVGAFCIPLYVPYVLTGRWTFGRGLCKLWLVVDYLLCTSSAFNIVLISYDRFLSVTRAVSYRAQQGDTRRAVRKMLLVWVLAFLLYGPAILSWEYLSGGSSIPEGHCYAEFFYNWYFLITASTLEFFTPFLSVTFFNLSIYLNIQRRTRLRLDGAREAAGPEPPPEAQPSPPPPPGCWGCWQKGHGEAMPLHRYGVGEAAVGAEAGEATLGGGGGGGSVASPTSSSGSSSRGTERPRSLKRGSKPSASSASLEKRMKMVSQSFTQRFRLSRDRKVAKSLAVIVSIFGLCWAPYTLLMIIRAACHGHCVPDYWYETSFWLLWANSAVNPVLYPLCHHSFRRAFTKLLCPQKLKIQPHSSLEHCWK

Structure (SMILES) | Ki (sigma-1 receptor) | body weight during administration (time course) [1] | amount of peritoneal fat pads vs palatable diet + vehicle [1] | calorie intake vs control group fed palatable feed [1] | body weight vs palatable diet + vehicle [1] | body weight gain vs palatable diet + vehicle [1] | Ki (sigma-2 receptor) | area under the IPGTT curve (AUC) vs rats fed high-calorie feed [2] | blood glucose levels after glucose load vs control animals fed palatable feed [2] | milk intake vs control group fed palatable feed ([1]; 10 mg/kg b.w.) | peanuts intake vs control group fed palatable feed ([1]; 10 mg/kg b.w.) | affinity ratio H3/sigma-2 receptors (H3R)
CCC(=O)c1ccc(OCCCCCCN2CCN(c3ccncc3)CC2)cc1 [KSK-60] | 248 nM | significant inhibition of body weight gain around the 10th day | fewer peritoneal fat pads | did not significantly influence the amount of calories consumed | No differences in body weight | gained significantly less weight | 110 nM | decreased significantly | significantly lower at 30 or/and 60 min after glucose load | – | – | –
CCC(=O)c1ccc(OCCCCCCCCN2CCN(c3ccncc3)CC2)cc1 [KSK-74] | 274 nM | significant inhibition of body weight gain around the 10th day | fewer fat pads | did not significantly influence the amount of calories consumed | No differences in body weight | gained significantly less weight | 65.9 nM | decreased significantly | significantly lower at 30 or/and 60 min after glucose load | consumed significantly less milk in the first and second weeks | significantly less peanuts in the fourth week | 0.59
